The subject of experiment [1] is HCV genotype 1b (Con1) replicon in HUH-7 cells. The experiment can be described thus: HCV replicon luciferase reporter assay, genotype 1b. It is filed as cell-based. The settings on record: Hepatitis C virus, Huh-7, 72 h, HCV genotype 1b replicon luciferase assay, 3 days incubation, range class, read-out: LE_1b (EC50, range). Summed up: (§1)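 Replicon inhibition for both genotypes was measured as Renilla luciferase signal (EnduRen, 7.5 μM final, 2 h) after 3-day, 37° C exposure of replicon-bearing HUH-7 cells in 4% FCS DMEM, 0.5% DMSO. The 1b construct carries S1179I; the 1a H77 construct carries P1496L and S2204I. Twenty-point, 3-fold dilutions were fitted four-parametrically for EC50, and CC50 was taken from multiplexed Cell Titer-Blue.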
For orientation: In antiviral work, replicon cells carry a viral genome segment that copies itself.

The test system of experiment [2] is HCV genotype 1a (H77 strain) replicon in HUH-7 cells. The experiment can be described thus: HCV replicon luciferase reporter assay, genotype 1a. The settings on record: Hepatitis C virus, Huh-7, 72 h, HCV genotype 1a replicon luciferase assay, 3 days incubation, range class, read-out: LE_1a (EC50, range). It is filed as cell-based. The gist of the method:
as §1

Like-named read-outs stand apart in the source and are kept apart here.

With `CC[C@@H]1C[C@H](C)CC/C=C\[C@@H]2C[C@@]2(C(=O)NS(=O)(=O)C2CC2)NC(=O)[C@@H]2C[C@@H](Oc3nccc4c(OC)cccc34)CN2C(=O)[C@H]1NC(=O)OC(C)(C)C(F)(F)F` [Compound 3032, 1,1,1-trifluoro-2-methylpropan-2-yl((2R,6S,7R,9R,13aS,14aR,16aS,Z)-14a-((cyclopropylsulfonyl)carbamoyl)-7-ethyl-2-((5-methoxyisoquinolin-1-yl)oxy)-9-methyl-5,16-dioxo-1,2,3,5,6,7,8,9,10,11,13a,14,14a,15,16,16a-hexadecahydrocyclopropa[e]pyrrolo[1,2-a][1,4]diazacyclopentadecin-6-yl)carbamate], the 50% effective concentration (EC50) in experiment [1] and in experiment [2] was less than 5.46 nM in each case.

Take `CC[C@@H]1C[C@@H](C)CC/C=C\[C@@H]2C[C@@]2(C(=O)NS(=O)(=O)C2(C)CC2)NC(=O)[C@@H]2C[C@@H](Oc3nccc4c(OC)cccc34)CN2C(=O)[C@H]1NC(=O)NC(C)(C)C` [Compound 3033, (2R,6S,7R,9S,13aS,14aR,16aS,Z)-6-(3-(tert-butyl)ureido)-7-ethyl-2-((5-methoxyisoquinolin-1-yl)oxy)-9-methyl-N-((1-methylcyclopropyl)sulfonyl)-5,16-dioxo-1,2,3,5,6,7,8,9,10,11,13a,14,14a,15,16,16a-hexadecahydrocyclopropa[e]pyrrolo[1,2-a][1,4]diazacyclopentadecine-14a-carboxamide]: the EC50 in experiment [1] and in experiment [2] was 4.82 to 103 nM throughout.

Regarding `CC[C@@H]1C[C@H](C)CC/C=C\[C@@H]2C[C@@]2(C(=O)NS(=O)(=O)C2(C)CC2)NC(=O)[C@@H]2C[C@@H](Oc3nccc4c(OC)cccc34)CN2C(=O)[C@H]1NC(=O)NC(C)(C)C` [Compound 3034, (2R,6S,7R,9R,13aS,14aR,16aS,Z)-6-(3-(tert-butyl)ureido)-7-ethyl-2-((5-methoxyisoquinolin-1-yl)oxy)-9-methyl-N-((1-methylcyclopropyl)sulfonyl)-5,16-dioxo-1,2,3,5,6,7,8,9,10,11,13a,14,14a,15,16,16a-hexadecahydrocyclopropa[e]pyrrolo[1,2-a][1,4]diazacyclopentadecine-14a-carboxamide], the EC50 in experiment [1] and in experiment [2] was less than 5.46 nM throughout.

As for `COc1cccc2c(O[C@@H]3C[C@H]4C(=O)N[C@]5(C(=O)NS(=O)(=O)C6(C)CC6)C[C@H]5/C=C\CC[C@H](C)C[C@@H](C)[C@H](NC(=O)OC(C)(C)C)C(=O)N4C3)nccc12` [Compound 3035, tert-butyl ((2R,6S,7R,9S,13aS,14aR,16aS,Z)-2-((5-methoxyisoquinolin-1-yl)oxy)-7,9-dimethyl-14a-(((1-methylcyclopropyl)sulfonyl)carbamoyl)-5,16-dioxo-1,2,3,5,6,7,8,9,10,11,13a,14,14a,15,16,16a-hexadecahydrocyclopropa[e]pyrrolo[1,2-a][1,4]diazacyclopentadecin-6-yl)carbamate], the concentration for a half-maximal effect (EC50) (as a rule, the midpoint of the concentration-response curve) in experiment [1] was less than 5.46 nM; in experiment [2], 4.82 to 103 nM.

`COc1cccc2c(O[C@@H]3C[C@H]4C(=O)N[C@]5(C(=O)NS(=O)(=O)C6(C)CC6)C[C@H]5/C=C\CC[C@@H](C)C[C@@H](C)[C@H](NC(=O)OC(C)(C)C)C(=O)N4C3)nccc12` [Compound 3036, tert-butyl ((2R,6S,7R,9R,13aS,14aR,16aS,Z)-2-((5-methoxyisoquinolin-1-yl)oxy)-7,9-dimethyl-14a-(((1-methylcyclopropyl)sulfonyl)carbamoyl)-5,16-dioxo-1,2,3,5,6,7,8,9,10,11,13a,14,14a,15,16,16a-hexadecahydrocyclopropa[e]pyrrolo[1,2-a][1,4]diazacyclopentadecin-6-yl)carbamate]: the EC50 in experiment [1] and in experiment [2] was less than 5.46 nM each time.

Regarding `COc1cccc2c(O[C@@H]3C[C@H]4C(=O)N[C@]5(C(=O)NS(=O)(=O)C6(C)CC6)C[C@H]5/C=C\CC[C@H](C)C[C@@H](C)[C@H](NC(=O)OC(C)(C)C(F)(F)F)C(=O)N4C3)nccc12` [Compound 3037, 1,1,1-trifluoro-2-methylpropan-2-yl((2R,6S,7R,9S,13aS,14aR,16aS,Z)-2-((5-methoxyisoquinolin-1-yl)oxy)-7,9-dimethyl-14a-(((1-methylcyclopropyl)sulfonyl)carbamoyl)-5,16-dioxo-1,2,3,5,6,7,8,9,10,11,13a,14,14a,15,16,16a-hexadecahydrocyclopropa[e]pyrrolo[1,2-a][1,4]diazacyclopentadecin-6-yl)carbamate], the 50% effective concentration (EC50) was less than 5.46 nM in experiment [1] and 4.82 to 103 nM in experiment [2].

`COc1cccc2c(O[C@@H]3C[C@H]4C(=O)N[C@]5(C(=O)NS(=O)(=O)C6(CF)CC6)C[C@H]5/C=C\CC[C@@H](C)C[C@@H](C)[C@H](NC(=O)OC(C)(C)C)C(=O)N4C3)nccc12` [Compound 3039, tert-butyl ((2R,6S,7R,9R,13aS,14aR,16aS,Z)-14a-(((1-(fluoromethyl)cyclopropyl)sulfonyl)carbamoyl)-2-((5-methoxyisoquinolin-1-yl)oxy)-7,9-dimethyl-5,16-dioxo-1,2,3,5,6,7,8,9,10,11,13a,14,14a,15,16,16a-hexadecahydrocyclopropa[e]pyrrolo[1,2-a][1,4]diazacyclopentadecin-6-yl)carbamate]: the EC50 in experiment [1] and in experiment [2] was less than 5.46 nM each time.

`COc1cccc2c(O[C@@H]3C[C@H]4C(=O)N[C@]5(C(=O)NS(=O)(=O)C6(CF)CC6)C[C@H]5/C=C\CC[C@@H](C)C[C@@H](C)[C@H](NC(=O)OC(C)(C)C(F)(F)F)C(=O)N4C3)nccc12` [Compound 3040]: the EC50 in experiment [1] (GETYPE1B) and in experiment [2] (GETYPE1A) was less than 5.46 nM throughout.

On to `COc1ccc2c(O[C@@H]3C[C@H]4C(=O)N[C@]5(C(=O)NS(=O)(=O)C6CC6)C[C@H]5/C=C\CC[C@H](C)C[C@@H](C)[C@H](NC(=O)OC(C)(C)C)C(=O)N4C3)nc(-c3ccc(F)cc3)cc2c1` [Compound 3041, tert-butyl ((2R,6S,7R,9S,13aS,14aR,16aS,Z)-14a-((cyclopropylsulfonyl)carbamoyl)-2-((3-(4-fluorophenyl)-6-methoxyisoquinolin-1-yl)oxy)-7,9-dimethyl-5,16-dioxo-1,2,3,5,6,7,8,9,10,11,13a,14,14a,15,16,16a-hexadecahydrocyclopropa[e]pyrrolo[1,2-a][1,4]diazacyclopentadecin-6-yl)carbamate], for which the EC50 in experiment [1] and in experiment [2] was less than 5.46 nM each time.

`COc1ccc2c(O[C@@H]3C[C@H]4C(=O)N[C@]5(C(=O)NS(=O)(=O)C6CC6)C[C@H]5/C=C\CC[C@@H](C)C[C@@H](C)[C@H](NC(=O)OC(C)(C)C)C(=O)N4C3)nc(-c3ccc(F)cc3)cc2c1` [Compound 3042, tert-butyl ((2R,6S,7R,9R,13aS,14aR,16aS,Z)-14a-((cyclopropylsulfonyl)carbamoyl)-2-((3-(4-fluorophenyl)-6-methoxyisoquinolin-1-yl)oxy)-7,9-dimethyl-5,16-dioxo-1,2,3,5,6,7,8,9,10,11,13a,14,14a,15,16,16a-hexadecahydrocyclopropa[e]pyrrolo[1,2-a][1,4]diazacyclopentadecin-6-yl)carbamate]: the EC50 in experiment [1] and in experiment [2] was less than 5.46 nM in each case.

On to `COc1ccc2c(O[C@@H]3C[C@H]4C(=O)N[C@]5(C(=O)NS(=O)(=O)C6CC6)C[C@H]5/C=C\CC[C@H](C)C[C@@H](C)[C@H](NC(=O)OC(C)(C)C(F)(F)F)C(=O)N4C3)nc(-c3ccc(F)cc3)cc2c1` [Compound 3043, 1,1,1-trifluoro-2-methylpropan-2-yl((2R,6S,7R,9S,13aS,14aR,16aS,Z)-14a-((cyclopropylsulfonyl)carbamoyl)-2-((3-(4-fluorophenyl)-6-methoxyisoquinolin-1-yl)oxy)-7,9-dimethyl-5,16-dioxo-1,2,3,5,6,7,8,9,10,11,13a,14,14a,15,16,16a-hexadecahydrocyclopropa[e]pyrrolo[1,2-a][1,4]diazacyclopentadecin-6-yl)carbamate], for which the concentration giving a half-maximal response (EC50) in experiment [1] and in experiment [2] was less than 5.46 nM each time.

As for `COc1ccc2c(O[C@@H]3C[C@H]4C(=O)N[C@]5(C(=O)NS(=O)(=O)C6CC6)C[C@H]5/C=C\CC[C@@H](C)C[C@@H](C)[C@H](NC(=O)OC(C)(C)C(F)(F)F)C(=O)N4C3)nc(-c3ccc(F)cc3)cc2c1` [Compound 3044, 1,1,1-trifluoro-2-methylpropan-2-yl((2R,6S,7R,9R,13aS,14aR,16aS,Z)-14a-((cyclopropylsulfonyl)carbamoyl)-2-((3-(4-fluorophenyl)-6-methoxyisoquinolin-1-yl)oxy)-7,9-dimethyl-5,16-dioxo-1,2,3,5,6,7,8,9,10,11,13a,14,14a,15,16,16a-hexadecahydrocyclopropa[e]pyrrolo[1,2-a][1,4]diazacyclopentadecin-6-yl)carbamate], the EC50 in experiment [1] and in experiment [2] was less than 5.46 nM throughout.

In the case of `COc1ccc2c(O[C@@H]3C[C@H]4C(=O)N[C@]5(C(=O)NS(=O)(=O)C6CC6)C[C@H]5/C=C\CC[C@H](C)C[C@@H](C)[C@H](NC(=O)O[C@@H]5C[C@@H]6C[C@@H]6C5)C(=O)N4C3)nc(-c3ccc(F)cc3)cc2c1` [Compound 3045, (1R,3r,5S)-bicyclo[3.1.0]hexan-3-yl((2R,6S,7R,9S,13aS,14aR,16aS,Z)-14a-((cyclopropylsulfonyl)carbamoyl)-2-((3-(4-fluorophenyl)-6-methoxyisoquinolin-1-yl)oxy)-7,9-dimethyl-5,16-dioxo-1,2,3,5,6,7,8,9,10,11,13a,14,14a,15,16,16a-hexadecahydrocyclopropa[e]pyrrolo[1,2-a][1,4]diazacyclopentadecin-6-yl)carbamate], the EC50 in experiment [1] and in experiment [2] was less than 5.46 nM each time.

These data come from patent US9499550B2 (BRISTOL-MYERS SQUIBB COMPANY, priority 2012, dated 2016).
